Experimental data from patent US11945796B2, “Substituted pyridine derivatives as SARM1 inhibitors” (Nura Bio, Inc., priority 2020, dated 2024).
Where two headings read alike, the source gives them in different places.

Target: T1, human SARM1(50-724) (Homo sapiens, UniProt Q6SZW1)
T1 construct: 40 nM human SARM1(50-724)
T1 sequence (Q6SZW1 50-724): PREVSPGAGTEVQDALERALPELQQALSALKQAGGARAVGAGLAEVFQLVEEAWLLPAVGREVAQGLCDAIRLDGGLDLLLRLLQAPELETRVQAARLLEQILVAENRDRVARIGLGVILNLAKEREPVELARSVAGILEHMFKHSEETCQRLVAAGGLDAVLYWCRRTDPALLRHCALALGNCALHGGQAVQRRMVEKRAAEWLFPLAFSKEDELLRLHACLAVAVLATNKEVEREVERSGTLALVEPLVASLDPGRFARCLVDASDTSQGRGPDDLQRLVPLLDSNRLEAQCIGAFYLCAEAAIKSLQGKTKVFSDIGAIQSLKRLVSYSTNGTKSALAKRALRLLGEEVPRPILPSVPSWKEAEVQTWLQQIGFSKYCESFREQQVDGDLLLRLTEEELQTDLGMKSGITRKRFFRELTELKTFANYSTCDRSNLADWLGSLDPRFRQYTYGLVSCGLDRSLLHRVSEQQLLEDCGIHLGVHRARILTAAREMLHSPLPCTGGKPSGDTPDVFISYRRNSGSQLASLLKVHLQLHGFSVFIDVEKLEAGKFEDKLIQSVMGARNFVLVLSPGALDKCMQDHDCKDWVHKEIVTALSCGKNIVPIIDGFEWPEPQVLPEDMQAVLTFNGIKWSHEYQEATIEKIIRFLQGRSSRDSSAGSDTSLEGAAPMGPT
Experiment: SARM1 NADase biochemical assay (HPLC peak areas of NAD and NAM)
Details: for IC50: dose-response, 1:3 serial dilution from 100 μM, 40 nM SARM1, 0.3 mM NMN, 20 μM NAD, 60 min rt
Description: The reaction was incubated at room temperature for 60 minutes and quenched with 20 μL of 0.4% formic acid. […] Total run time for each sample was 4 minutes. […] Samples were run at a flow rate of 0.8 mL/min at 55° C. Peak areas of NAD and NAM were determined using OpenLAB CDS (Chem Station edition) software. For dose-response, the compound was diluted serially 1:3 in DMSO and added to the reaction starting at a final compound concentration of 100 μM in 1% DMSO.

[1] = 50 μM compound, NAD peak area, read-out: Avg NAD % inhibition at 50 μM
[2] = 50 μM compound, NAM peak area, read-out: Avg NAM % inhibition at 50 μM
[3] = read-out: Avg NAD % inhibition at 50 μM
[4] = read-out: Avg NAM % inhibition at 50 μM

Row | Compound | inhibition at 50 µM [1] | inhibition at 50 µM [2] | IC50 | further results
1 | COc1ccc(C(=O)Nc2ccn(Cc3ccncc3)n2)s1 [Example 64, 5-Methoxy-N-(1-(pyridin-4-ylmethyl)-1H-pyrazol-3-yl)thiophene-2-carboxamide] | 0 to 50% | 0 to 50% | – | –
2 | FC(F)(F)Cc1ccn(Cc2ccncc2)n1 [Example 29, 4-((3-(2,2,2-Trifluoroethyl)-1H-pyrazol-1-yl)methyl)pyridine] | – | – | < 1 µM | –
3 | FC(F)(F)C(CNc1ccn(Cc2ccncc2)n1)C(F)(F)F [Example 16, 1-(Pyridin-4-ylmethyl)-N-(3,3,3-trifluoro-2-(trifluoromethyl)propyl)-1H-pyrazol-3-amine] | – | – | 1 to 10 µM | –
4 | O=C(Nc1ccn(Cc2ccncc2)n1)c1cccc(O)c1 [Example 46, 3-Hydroxy-N-(1-(pyridin-4-ylmethyl)-1H-pyrazol-3-yl)benzamide] | 0 to 50% | 0 to 50% | – | –
5 | COc1ccc(S(=O)(=O)N(C)c2ccn(Cc3ccncc3)n2)cc1 [Example 75, 4-Methoxy-N-methyl-N-(1-(pyridin-4-ylmethyl)-1H-pyrazol-3-yl)benzenesulfonamide] | – | – | – | inhibition at 50 µM [3]: 0 to 50%; inhibition at 50 µM [4]: 0 to 50%
6 | (S)—N-(2,2-Difluoroethyl)-1-(1-(pyridin-4-yl)ethyl)-1H-pyrazol-3-amine and (R)—N-(2,2-Difluoroethyl)-1-(1-(pyridin-4-yl)ethyl)-1H-pyrazol-3-amine [Example 8a] | – | – | – | Avg NAD % inhibition at 50 μM (50 μM compound, NAD peak area): * (% Inhibition 0-50%); Avg NAM % inhibition at 50 μM (50 μM compound, NAM peak area): * (% Inhibition 0-50%)
7 | Cc1cc(Cc2ccncc2)nn1CC(F)(F)F [Example 83, 4-((5-Methyl-1-(2,2,2-trifluoroethyl)-1H-pyrazol-3-yl)methyl)pyridine] | – | – | 10 to 100 µM | –
8 | c1cc(Cn2ccc(NC3CC3)n2)ccn1 [Example 98, N-Cyclopropyl-1-(pyridin-4-ylmethyl)-1H-pyrazol-3-amine] | 0 to 50% | 0 to 50% | – | –
9 | Cc1ccc(C(=O)Nc2ccn(Cc3ccncc3)n2)cc1 [Example 50, 4-Methyl-N-(1-(pyridin-4-ylmethyl)-1H-pyrazol-3-yl)benzamide] | 0 to 50% | 0 to 50% | – | –
10 | [2H]C(C)(c1ccncc1)c1ccn(CC(F)(F)F)n1 (racemic) [Example 82, (rac)-4-(1-(1-(2,2,2-Trifluoroethyl)-1H-pyrazol-3-yl)ethyl-1-d)pyridine] | – | – | < 1 µM | –
11 | O=C(Nc1ccn(Cc2ccncc2)n1)c1ccccc1 [Example 69, N-(1-(Pyridin-4-ylmethyl)-1H-pyrazol-3-yl)benzamide] | – | – | – | inhibition at 50 µM [3]: 51 to 100%; inhibition at 50 µM [4]: 51 to 100%
12 | c1cc(Cn2ccc(NC3CCC3)n2)ccn1 [Example 97, N-Cyclobutyl-1-(pyridin-4-ylmethyl)-1H-pyrazol-3-amine] | 0 to 50% | 0 to 50% | – | –
13 | O=C(Nc1ccn(Cc2ccncc2)n1)c1ccccn1 [Example 61, N-(1-(Pyridin-4-ylmethyl)-1H-pyrazol-3-yl)picolinamide] | 0 to 50% | 0 to 50% | – | –
14 | O=C(Nc1ccn(Cc2ccncc2)n1)c1ccccc1Cl [Example 53, 2-Chloro-N-(1-(pyridin-4-ylmethyl)-1H-pyrazol-3-yl)benzamide] | 0 to 50% | 0 to 50% | – | –
15 | O=C(CCc1cccc(Cl)c1)Nc1ccn(Cc2ccncc2)n1 [Example 32, 3-(3-Chlorophenyl)-N-(1-(pyridin-4-ylmethyl)-1H-pyrazol-3-yl)propanamide] | 0 to 50% | 0 to 50% | – | –
16 | O=C(Nc1ccn(Cc2ccncc2)n1)c1csc(Cl)c1 [Example 66, 5-Chloro-N-(1-(pyridin-4-ylmethyl)-1H-pyrazol-3-yl)thiophene-3-carboxamide] | – | – | 1 to 10 µM | –

Row | Compound | inhibition at 50 µM [1] | inhibition at 50 µM [2] | IC50 | further results
17 | COc1ccccc1C(=O)Nc1ccn(Cc2ccncc2)n1 [Example 44, 2-Methoxy-N-(1-(pyridin-4-ylmethyl)-1H-pyrazol-3-yl)benzamide] | – | – | – | inhibition at 50 µM [3]: 0 to 50%; inhibition at 50 µM [4]: 0 to 50%
18 | O=C(CCc1cc(F)ccc1F)Nc1ccn(Cc2ccncc2)n1 [Example 33, 3-(2,5-Difluorophenyl)-N-(1-(pyridin-4-ylmethyl)-1H-pyrazol-3-yl)propanamide] | 51 to 100% | 51 to 100% | > 100 µM | –
19 | CC(c1ccncc1)c1nn(CC(F)(F)F)cc1F (racemic) [Example 22, (rac)-4-(1-(4-Fluoro-1-(2,2,2-trifluoroethyl)-1H-pyrazol-3-yl)ethyl)pyridine] | – | – | 1 to 10 µM | –
20 | FC(c1ccncc1)c1ccn(CC(F)(F)F)n1 (racemic) [Example 79, (rac)-4-(Fluoro(1-(2,2,2-trifluoroethyl)-1H-pyrazol-3-yl)methyl)pyridine] | – | – | 10 to 100 µM | –
21 | O=C(CCc1cc(Cl)cc(Cl)c1)Nc1ccn(Cc2ccncc2)n1 [Example 35, 3-(3,5-Dichlorophenyl)-N-(1-(pyridin-4-ylmethyl)-1H-pyrazol-3-yl)propanamide] | 0 to 50% | 0 to 50% | – | –
22 | Cc1cc(C(=O)Nc2ccn(Cc3ccncc3)n2)cs1 [Example 67, 5-Methyl-N-(1-(pyridin-4-ylmethyl)-1H-pyrazol-3-yl)thiophene-3-carboxamide] | 51 to 100% | 0 to 50% | – | –
23 | O=C(Nc1ccn(Cc2ccncc2)n1)c1cccc(Cl)c1 [Example 54, 3-Chloro-N-(1-(pyridin-4-ylmethyl)-1H-pyrazol-3-yl)benzamide] | – | – | 10 to 100 µM | –
24 | (R)-3-Fluoro-4-(1-(1-(2,2,2-trifluoroethyl)-1H-pyrazol-3-yl)ethyl)pyridine and (S)-3-Fluoro-4-(1-(1-(2,2,2-trifluoroethyl)-1H-pyrazol-3-yl)ethyl)pyridine [Example 78] | – | – | 1 to 10 µM | –
25 | N#CCc1ccn(Cc2ccncc2)n1 [Example 30, 2-(1-(Pyridin-4-ylmethyl)-1H-pyrazol-3-yl)acetonitrile] | – | – | 1 to 10 µM | –
26 | (R)-2-(1-(1-(pyridin-4-yl)ethyl)-1H-pyrazol-3-yl)acetonitrile and (S)-2-(1-(1-(pyridin-4-yl)ethyl)-1H-pyrazol-3-yl)acetonitrile [Example 28] | – | – | 1 to 10 µM | –
27 | N#CCNc1ccn(Cc2ccncc2)n1 [Example 17, 2-((1-(Pyridin-4-ylmethyl)-1H-pyrazol-3-yl)amino)acetonitrile] | – | – | 1 to 10 µM | –
28 | O=C(CCc1ccc(Cl)cc1)Nc1ccn(Cc2ccncc2)n1 [Example 106, 3-(4-Chlorophenyl)-N-{1-[(pyridin-4-yl)methyl]-1H-pyrazol-3-yl}propanamide] | 0 to 50% | 0 to 50% | – | –
29 | FC(c1ccncc1)n1ccc(CC(F)(F)F)n1 (racemic) [Example 105, (rac)-4-{Fluoro[3-(2,2,2-trifluoroethyl)-1H-pyrazol-1-yl]methyl}pyridine] | – | – | – | inhibition at 50 µM [3]: 0 to 50%; inhibition at 50 µM [4]: 0 to 50%
30 | CN(CC(F)(F)F)c1ccn(Cc2ccncc2)n1 [Example 90, N-Methyl-1-(pyridin-4-ylmethyl)-N-(2,2,2-trifluoroethyl)-1H-pyrazol-3-amine] | – | – | 10 to 100 µM | –
31 | COc1ccc(C(=O)Nc2ccn(Cc3ccncc3)n2)cc1OC [Example 41, 3,4-Dimethoxy-N-(1-(pyridin-4-ylmethyl)-1H-pyrazol-3-yl)benzamide] | – | – | – | inhibition at 50 µM [3]: 0 to 50%; inhibition at 50 µM [4]: 0 to 50%
